Measured values published in ChEMBL document CHEMBL4613324, “Design, Synthesis, and Evaluation of a Series of Novel Super Long-Acting DPP-4 Inhibitors for the Treatment of Type 2 Diabetes” (J Med Chem, 2020).
Calls of active or inactive are those of the source. No cut-off for these calls is given here.

Columns and labels:
Cytochrome P450 3A5 [1] = biological target: T1, Cytochrome P450 3A5 (Homo sapiens, UniProt P20815); assay: Inhibition of recombinant human CYP3A5 using testosterone as substrate; format: ADME
Mus musculus [2] = assay: Antidiabetic activity in ob/ob mouse assessed as reduction in random blood glucose levels at 1 to 10 mg/kg, po dosed once every three days for 31 days; format: functional, organism-based
[3] = Clearance in ICR mouse at 0.5 mg/kg, iv measured after 0.0833 to 120 hrs by LC-MS-MS analysis; format: ADME, organism-based; details: in vivo
CYP1A2 = CYP1A2 (Homo sapiens, UniProt P05177); assay: Stability assessed as recombinant human CYP1A2 mediated compound metabolism by measuring parent compound remaining after 30 mins relative to control; format: ADME; details: read-out: Stability
[4] = Half life in ICR mouse at 0.5 mg/kg, iv measured after 0.0833 to 120 hrs by LC-MS-MS analysis; format: ADME, organism-based; details: in vivo
[5] = biological target: Dipeptidyl peptidase 4 (Mus musculus) (UniProt P28843); assay: Ex-vivo inhibition of DPP4 in plasma isolated from ob/ob mouse treated at 3 to 30 mg/kg, po measured after 2 to 72 hrs by fluorescence based assay; format: functional, organism-based
Cytochrome P450 2C19 [6] = biological target: T2, Cytochrome P450 2C19 (Homo sapiens, UniProt P33261); assay: (§1) Inhibition of recombinant human CYP2C19; format: ADME
Cytochrome P450 2D6 = Cytochrome P450 2D6 (Homo sapiens, UniProt P10635); assay: Inhibition of recombinant human CYP2D6; format: ADME
[7] = AUC in female Sprague-Dawley rat during 3-month repeated dose toxicology study; format: ADME; details: in vivo
[8] = AUC in male Sprague-Dawley rat during 3-month repeated dose toxicology study; format: ADME; details: in vivo
CYP2C19 = CYP2C19 (Homo sapiens, UniProt P33261); assay: Stability assessed as recombinant human CYP2C19 mediated compound metabolism by measuring parent compound remaining after 30 mins relative to control; format: ADME; details: read-out: Stability
Mus musculus [9] = assay: Antidiabetic activity in ob/ob mouse assessed as reduction in decrease in HbA1c level at 1 mg/kg, po dosed once every three days for 31 day relative to control; format: functional; parameters: scale not given: the % may be the effect or the level left
[10] = Toxicity in male Sprague-Dawley rat during 3-month repeated dose toxicology study; details: in vivo
CYP2C8 = CYP2C8 (Homo sapiens, UniProt P10632); assay: Stability assessed as recombinant human CYP2C8 mediated compound metabolism by measuring parent compound remaining after 30 mins relative to control; format: ADME; details: read-out: Stability
Cytochrome P450 3A5 [11] = biological target: T1, Cytochrome P450 3A5; assay: Inhibition of recombinant human CYP3A5 using midazolam as substrate; format: ADME
Cytochrome P450 2B6 [12] = biological target: T3, Cytochrome P450 2B6 (Homo sapiens, UniProt P20813); assay: (§2) Inhibition of recombinant human CYP2B6; format: ADME
T3 sequence (P20813 whole entry): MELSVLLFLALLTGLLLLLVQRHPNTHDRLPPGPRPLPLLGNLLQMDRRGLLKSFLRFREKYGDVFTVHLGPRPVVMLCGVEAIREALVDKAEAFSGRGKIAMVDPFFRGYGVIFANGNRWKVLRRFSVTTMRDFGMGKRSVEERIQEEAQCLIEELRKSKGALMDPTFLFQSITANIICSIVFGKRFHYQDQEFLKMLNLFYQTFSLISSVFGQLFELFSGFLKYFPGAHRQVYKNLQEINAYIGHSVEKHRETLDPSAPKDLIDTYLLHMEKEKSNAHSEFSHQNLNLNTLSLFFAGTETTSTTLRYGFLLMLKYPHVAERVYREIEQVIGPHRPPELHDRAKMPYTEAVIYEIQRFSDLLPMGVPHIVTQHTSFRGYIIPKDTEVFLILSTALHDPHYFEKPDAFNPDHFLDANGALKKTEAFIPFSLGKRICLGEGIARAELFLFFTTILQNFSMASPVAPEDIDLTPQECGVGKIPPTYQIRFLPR

Cytochrome P450 3A4 [13] = biological target: T4, Cytochrome P450 3A4 (Homo sapiens, UniProt P08684); assay: (§3) Inhibition of recombinant human CYP3A4 using midazolam as substrate; format: ADME
CYP2D6 = CYP2D6 (Homo sapiens, UniProt P10635); assay: Stability assessed as recombinant human CYP2D6 mediated compound metabolism by measuring parent compound remaining after 30 mins relative to control; format: ADME; details: read-out: Stability
Cytochrome P450 1A2 [14] = biological target: T5, Cytochrome P450 1A2 (Homo sapiens, UniProt P05177); assay: (§4) Inhibition of recombinant human CYP1A2; format: ADME
T5 sequence (P05177 whole entry): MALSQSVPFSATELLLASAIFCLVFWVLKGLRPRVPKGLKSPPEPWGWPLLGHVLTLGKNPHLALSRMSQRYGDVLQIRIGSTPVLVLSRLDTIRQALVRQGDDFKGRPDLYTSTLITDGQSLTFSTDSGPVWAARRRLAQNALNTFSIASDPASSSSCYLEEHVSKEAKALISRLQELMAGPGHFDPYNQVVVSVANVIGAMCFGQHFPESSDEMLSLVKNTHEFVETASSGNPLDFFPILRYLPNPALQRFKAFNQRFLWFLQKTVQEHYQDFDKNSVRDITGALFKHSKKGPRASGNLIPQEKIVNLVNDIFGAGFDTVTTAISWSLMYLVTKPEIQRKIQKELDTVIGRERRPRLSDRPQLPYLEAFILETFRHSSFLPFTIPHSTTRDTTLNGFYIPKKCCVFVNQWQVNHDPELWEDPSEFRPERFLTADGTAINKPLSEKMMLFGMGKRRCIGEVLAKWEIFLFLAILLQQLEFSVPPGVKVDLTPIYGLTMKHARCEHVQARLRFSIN

CYP2E1 = CYP2E1 (Homo sapiens, UniProt P05181); assay: Stability assessed as recombinant human CYP2E1 mediated compound metabolism by measuring parent compound remaining after 30 mins relative to control; format: ADME; details: read-out: Stability
Cytochrome P450 2E1 = Cytochrome P450 2E1 (Homo sapiens, UniProt P05181); assay: Inhibition of recombinant human CYP2E1; format: ADME
CYP2C9 = CYP2C9 (Homo sapiens, UniProt P11712); assay: Stability assessed as recombinant human CYP2C9 mediated compound metabolism by measuring parent compound remaining after 30 mins relative to control; format: ADME; details: read-out: Stability
Cytochrome P450 1A2 [15] = biological target: T5, Cytochrome P450 1A2; assay: as §4; format: ADME; remark: listed apart in the source
Cytochrome P450 2C9 [16] = biological target: T6, Cytochrome P450 2C9 (Homo sapiens, UniProt P11712); assay: (§5) Inhibition of recombinant human CYP2C9; format: ADME
Cytochrome P450 2B6 [17] = biological target: T3, Cytochrome P450 2B6; assay: as §2; format: ADME; remark: listed apart in the source
Cytochrome P450 2C9 [18] = biological target: T6, Cytochrome P450 2C9; assay: as §5; format: ADME; remark: listed apart in the source
Cytochrome P450 3A4 [19] = biological target: T4, Cytochrome P450 3A4; assay: as §3; format: ADME; remark: listed apart in the source
Dipeptidyl peptidase 9 = Dipeptidyl peptidase 9 (Homo sapiens, UniProt Q86TI2); assay: Inhibition of human recombinant DPP9 incubated for 15 mins using Gly-Pro-7-AMC substrate
[20] = AUC in T2D patient; format: ADME; details: human, in vivo
Cytochrome P450 2C19 [21] = biological target: T2, Cytochrome P450 2C19; assay: as §1; format: ADME; remark: listed apart in the source
Cytochrome P450 3A4 [22] = biological target: T4, Cytochrome P450 3A4; assay: as §3; format: ADME; remark: listed apart in the source

T4 sequence (P08684 whole entry): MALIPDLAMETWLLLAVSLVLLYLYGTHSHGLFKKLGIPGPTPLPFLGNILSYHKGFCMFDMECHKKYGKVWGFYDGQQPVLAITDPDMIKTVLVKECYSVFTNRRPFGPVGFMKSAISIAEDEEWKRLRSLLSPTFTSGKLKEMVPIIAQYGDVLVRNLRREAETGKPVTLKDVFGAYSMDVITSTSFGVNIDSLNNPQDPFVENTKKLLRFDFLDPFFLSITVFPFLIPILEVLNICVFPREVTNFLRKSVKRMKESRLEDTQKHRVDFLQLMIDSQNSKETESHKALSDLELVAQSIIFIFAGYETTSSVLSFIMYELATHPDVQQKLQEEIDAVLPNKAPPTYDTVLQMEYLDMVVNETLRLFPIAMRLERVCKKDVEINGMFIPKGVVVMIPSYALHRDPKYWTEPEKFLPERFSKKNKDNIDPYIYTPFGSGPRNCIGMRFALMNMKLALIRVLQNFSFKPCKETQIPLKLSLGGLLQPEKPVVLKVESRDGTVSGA
T2 sequence (P33261 whole entry): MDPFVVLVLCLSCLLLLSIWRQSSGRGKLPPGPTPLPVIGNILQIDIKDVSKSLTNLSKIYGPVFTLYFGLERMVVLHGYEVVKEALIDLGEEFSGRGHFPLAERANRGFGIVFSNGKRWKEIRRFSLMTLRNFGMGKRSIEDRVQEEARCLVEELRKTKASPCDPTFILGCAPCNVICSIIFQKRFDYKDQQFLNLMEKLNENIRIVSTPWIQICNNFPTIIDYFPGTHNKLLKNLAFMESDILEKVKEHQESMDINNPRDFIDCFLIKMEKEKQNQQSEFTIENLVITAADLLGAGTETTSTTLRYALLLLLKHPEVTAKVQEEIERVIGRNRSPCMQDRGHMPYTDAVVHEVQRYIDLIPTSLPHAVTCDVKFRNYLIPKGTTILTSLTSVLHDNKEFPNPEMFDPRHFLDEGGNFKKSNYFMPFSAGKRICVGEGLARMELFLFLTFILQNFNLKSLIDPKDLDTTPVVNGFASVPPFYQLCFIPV
T6 sequence (P11712 whole entry): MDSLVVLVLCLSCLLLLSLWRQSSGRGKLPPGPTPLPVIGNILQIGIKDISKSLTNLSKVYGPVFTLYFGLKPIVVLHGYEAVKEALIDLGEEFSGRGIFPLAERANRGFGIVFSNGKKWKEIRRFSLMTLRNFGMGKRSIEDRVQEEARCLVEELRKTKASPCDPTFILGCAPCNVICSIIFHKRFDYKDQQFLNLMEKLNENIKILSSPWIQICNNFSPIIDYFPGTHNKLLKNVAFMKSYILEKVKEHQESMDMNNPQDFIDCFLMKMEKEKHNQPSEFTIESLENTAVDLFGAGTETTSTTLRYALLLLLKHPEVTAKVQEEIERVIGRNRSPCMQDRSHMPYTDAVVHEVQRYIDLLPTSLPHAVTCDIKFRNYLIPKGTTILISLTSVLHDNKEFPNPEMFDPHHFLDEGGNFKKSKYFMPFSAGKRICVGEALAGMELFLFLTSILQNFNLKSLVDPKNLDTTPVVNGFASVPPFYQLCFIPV
T1 sequence (P20815 whole entry): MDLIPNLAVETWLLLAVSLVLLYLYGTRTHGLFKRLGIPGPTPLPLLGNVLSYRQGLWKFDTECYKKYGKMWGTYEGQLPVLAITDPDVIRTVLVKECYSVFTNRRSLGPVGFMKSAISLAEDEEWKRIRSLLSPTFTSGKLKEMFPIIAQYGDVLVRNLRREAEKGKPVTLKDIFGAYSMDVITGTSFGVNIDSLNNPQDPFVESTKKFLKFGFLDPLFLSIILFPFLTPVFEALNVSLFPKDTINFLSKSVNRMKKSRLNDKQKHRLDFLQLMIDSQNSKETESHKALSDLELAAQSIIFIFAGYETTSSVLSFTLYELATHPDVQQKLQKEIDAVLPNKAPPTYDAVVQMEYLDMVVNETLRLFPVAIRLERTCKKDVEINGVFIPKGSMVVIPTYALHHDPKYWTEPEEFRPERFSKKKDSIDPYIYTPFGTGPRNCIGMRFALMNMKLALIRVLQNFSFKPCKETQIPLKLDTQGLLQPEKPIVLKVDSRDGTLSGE
Chain of CYP2C19 (P33261 whole entry): as the sequence (P33261 whole entry) above
Chain of CYP2D6 (P10635 whole entry): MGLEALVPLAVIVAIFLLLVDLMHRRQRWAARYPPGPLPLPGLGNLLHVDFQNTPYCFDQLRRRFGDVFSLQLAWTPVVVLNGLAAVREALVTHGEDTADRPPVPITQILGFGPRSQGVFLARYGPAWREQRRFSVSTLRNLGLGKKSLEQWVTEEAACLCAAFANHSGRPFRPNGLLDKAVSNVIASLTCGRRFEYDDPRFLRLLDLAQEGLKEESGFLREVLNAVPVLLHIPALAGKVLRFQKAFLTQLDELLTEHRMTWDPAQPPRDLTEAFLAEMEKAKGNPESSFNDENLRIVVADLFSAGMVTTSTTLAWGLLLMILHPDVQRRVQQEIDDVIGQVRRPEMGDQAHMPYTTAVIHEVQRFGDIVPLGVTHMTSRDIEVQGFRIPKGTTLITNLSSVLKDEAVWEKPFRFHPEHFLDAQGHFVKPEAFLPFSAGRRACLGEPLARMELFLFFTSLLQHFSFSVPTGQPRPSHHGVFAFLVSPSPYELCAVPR
Chain of Cytochrome P450 2D6 (P10635 whole entry): as above
Chain of Dipeptidyl peptidase 4 (Mus musculus) (P28843 whole entry, looked up): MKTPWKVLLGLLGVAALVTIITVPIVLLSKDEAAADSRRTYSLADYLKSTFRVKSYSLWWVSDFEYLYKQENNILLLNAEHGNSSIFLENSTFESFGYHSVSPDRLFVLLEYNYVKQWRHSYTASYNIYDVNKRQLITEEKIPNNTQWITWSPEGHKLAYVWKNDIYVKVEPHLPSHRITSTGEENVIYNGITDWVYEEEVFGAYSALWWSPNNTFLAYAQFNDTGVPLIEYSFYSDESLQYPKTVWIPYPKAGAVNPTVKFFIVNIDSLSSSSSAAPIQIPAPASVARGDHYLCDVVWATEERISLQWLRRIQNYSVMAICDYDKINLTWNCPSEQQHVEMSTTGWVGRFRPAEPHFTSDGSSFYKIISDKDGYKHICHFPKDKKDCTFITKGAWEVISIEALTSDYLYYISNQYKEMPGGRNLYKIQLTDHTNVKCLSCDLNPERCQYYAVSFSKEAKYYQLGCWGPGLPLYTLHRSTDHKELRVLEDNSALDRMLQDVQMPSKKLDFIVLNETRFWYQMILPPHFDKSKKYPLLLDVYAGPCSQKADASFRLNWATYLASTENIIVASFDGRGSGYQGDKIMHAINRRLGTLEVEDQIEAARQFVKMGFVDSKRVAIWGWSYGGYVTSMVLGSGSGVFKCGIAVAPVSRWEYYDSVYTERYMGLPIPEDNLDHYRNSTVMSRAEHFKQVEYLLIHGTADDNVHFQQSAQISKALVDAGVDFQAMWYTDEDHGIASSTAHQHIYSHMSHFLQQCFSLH
Chain of Cytochrome P450 2E1 (P05181 whole entry): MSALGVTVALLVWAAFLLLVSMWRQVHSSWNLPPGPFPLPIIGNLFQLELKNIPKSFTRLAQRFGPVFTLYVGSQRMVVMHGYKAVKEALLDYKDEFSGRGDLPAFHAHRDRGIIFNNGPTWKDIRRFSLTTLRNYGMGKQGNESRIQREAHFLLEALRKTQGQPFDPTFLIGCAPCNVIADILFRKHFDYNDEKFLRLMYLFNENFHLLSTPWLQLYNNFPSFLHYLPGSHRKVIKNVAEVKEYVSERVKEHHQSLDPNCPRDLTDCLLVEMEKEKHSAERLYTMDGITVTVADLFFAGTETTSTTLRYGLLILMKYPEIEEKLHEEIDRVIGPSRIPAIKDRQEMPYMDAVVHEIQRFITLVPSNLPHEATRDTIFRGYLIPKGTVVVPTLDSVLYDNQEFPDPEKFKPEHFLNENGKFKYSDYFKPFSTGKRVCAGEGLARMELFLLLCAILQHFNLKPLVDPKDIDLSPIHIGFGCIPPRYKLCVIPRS
Chain of CYP2E1 (P05181 whole entry): as above
Chain of CYP2C8 (P10632 whole entry): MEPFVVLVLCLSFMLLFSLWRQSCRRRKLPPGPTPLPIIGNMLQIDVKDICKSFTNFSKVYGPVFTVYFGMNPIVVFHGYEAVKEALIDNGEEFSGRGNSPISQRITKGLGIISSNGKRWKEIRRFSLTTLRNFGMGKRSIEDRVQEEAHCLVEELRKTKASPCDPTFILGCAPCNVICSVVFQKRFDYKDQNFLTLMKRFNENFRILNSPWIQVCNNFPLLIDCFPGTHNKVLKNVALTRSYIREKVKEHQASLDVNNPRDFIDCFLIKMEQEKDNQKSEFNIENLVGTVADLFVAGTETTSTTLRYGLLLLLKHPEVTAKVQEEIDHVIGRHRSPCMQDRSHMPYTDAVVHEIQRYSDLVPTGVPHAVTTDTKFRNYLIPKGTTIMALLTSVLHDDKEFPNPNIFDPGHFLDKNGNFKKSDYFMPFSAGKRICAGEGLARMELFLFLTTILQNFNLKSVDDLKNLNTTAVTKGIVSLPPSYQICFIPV

For `CS(=O)(=O)n1cc2c(n1)CN([C@@H]1C[C@H](N)[C@@H](c3cc(F)ccc3F)O[C@@H]1C(F)(F)F)C2` [COFROGLIPTIN], the IC50 (Cytochrome P450 3A5 [1]) was over 100 µM, the Activity (Mus musculus [2]) was “Active” and the clearance [3] was 2.57 mL/min/kg. The remaining at 0.5 h (CYP1A2) was over 95%, the half-life [4] was 25.6 h and the inhibition [5] was “Dose-dependent effect”. The IC50 (Cytochrome P450 2C19 [6]) was over 100 µM, the IC50 (Cytochrome P450 2D6) was over 100 µM and the AUC [7] was 4240 µg·h/mL. It also gave an AUC [8] of 3600 µg·h/mL, a remaining at 0.5 h (CYP2C19) of over 95% and an Activity (Mus musculus [9]) of 3.1%. It also gave an NOAEL at 3 month [10] of 300 mg/kg, a remaining at 0.5 h (CYP2C8) of over 95% and an IC50 (Cytochrome P450 3A5 [11]) of over 100 µM. For the same compound, the IC50 (Cytochrome P450 2B6 [12]) was over 100 µM, the IC50 (Cytochrome P450 3A4 [13]) was 45.8 µM and the remaining at 0.5 h (CYP2D6) was over 95%. It also gave an IC50 (Cytochrome P450 1A2 [14]) of over 100 µM, a remaining at 0.5 h (CYP2E1) of over 95% and an IC50 (Cytochrome P450 2E1) of over 100 µM. It also gave a remaining at 0.5 h (CYP2C9) of over 95%, an IC50 (Cytochrome P450 1A2 [15]) of over 100 µM and an IC50 (Cytochrome P450 2C9 [16]) of over 100 µM. It also gave an IC50 (Cytochrome P450 2B6 [17]) of over 100 µM, an IC50 (Cytochrome P450 2C9 [18]) of over 100 µM and an IC50 (Cytochrome P450 3A4 [19]) of over 100 µM. It also gave an IC50 (Dipeptidyl peptidase 9) of over 100 µM, an AUC [20] of 34.9 µg·h/mL and an IC50 (Cytochrome P450 2C19 [21]) of over 100 µM. For the same compound, the IC50 (Cytochrome P450 3A4 [22]) was over 100 µM.
